From ChEMBL document CHEMBL4043204, “meso-Dihydroguaiaretic acid derivatives with antibacterial and antimycobacterial activity” (Bioorg Med Chem, 2017)
Activity calls are given as the source filed them. The calls are words filed in the database; no cut-off is given here.

These compounds were tested on Mycobacterium tuberculosis (assay: Antimycobacterial activity against Mycobacterium tuberculosis H37Rv ATCC 27294 assessed as inhibition of mycobacterial growth up to 50 ug/ml incubated for 2 weeks by MABA method).
Type: functional

Row | SMILES | growth inhibition (GI)
1 | CCCCCCCC/C=C\CCCCCCCC(=O)Oc1ccc(C[C@@H](C)[C@@H](C)Cc2ccc(OC(=O)CCCCCCC/C=C\CCCCCCCC)c(OC)c2)cc1OC | inactive
2 | COc1ccc(C[C@@H](C)[C@@H](C)Cc2ccc(OC)c(OC)c2)cc1OC [TERAMEPROCOL] | inactive
3 | CCCC(=O)Oc1ccc(C[C@@H](C)[C@@H](C)Cc2ccc(OC(=O)CCC)c(OC)c2)cc1OC | inactive
4 | CCCCCCCCCCCCCCCCCC(=O)Oc1ccc(C[C@H](C)[C@H](C)Cc2ccc(O)c(OC)c2)cc1OC (racemic) | inactive
5 | CCCCCCCC/C=C\CCCCCCCC(=O)Oc1ccc(C[C@H](C)[C@H](C)Cc2ccc(O)c(OC)c2)cc1OC (racemic) | inactive

These compounds were tested on Klebsiella pneumoniae (assay: Antibacterial activity against extended-spectrum beta-lactamase-positive Klebsiella pneumoniae (14-2081) assessed as inhibition of microbial growth up to 50 ug/ml incubated for 24 hrs by microdilution assay).
Type: functional

Row | SMILES | Activity
6 | CCCCCCCC/C=C\CCCCCCCC(=O)Oc1ccc(C[C@@H](C)[C@@H](C)Cc2ccc(OC(=O)CCCCCCC/C=C\CCCCCCCC)c(OC)c2)cc1OC | inactive
7 | COc1ccc(C[C@@H](C)[C@@H](C)Cc2ccc(OC)c(OC)c2)cc1OC [TERAMEPROCOL] | inactive
8 | CCCC(=O)Oc1ccc(C[C@@H](C)[C@@H](C)Cc2ccc(OC(=O)CCC)c(OC)c2)cc1OC | inactive
9 | CCCCCCCCCCCCCCCCCC(=O)Oc1ccc(C[C@H](C)[C@H](C)Cc2ccc(O)c(OC)c2)cc1OC (racemic) | inactive
10 | CCCCCCCC/C=C\CCCCCCCC(=O)Oc1ccc(C[C@H](C)[C@H](C)Cc2ccc(O)c(OC)c2)cc1OC (racemic) | inactive

These compounds were tested on Mycobacterium tuberculosis (assay: Antimycobacterial activity against Mycobacterium tuberculosis H37Rv ATCC 27294 assessed as inhibition of mycobacterial growth incubated for 2 weeks by MABA method).
Type: functional

Row | SMILES | -logMIC
11 | CCCCCCCC/C=C\CCCCCCCC(=O)Oc1ccc(C[C@@H](C)[C@@H](C)Cc2ccc(OC(=O)CCCCCCC/C=C\CCCCCCCC)c(OC)c2)cc1OC | 4.88
12 | COc1ccc(C[C@@H](C)[C@@H](C)Cc2ccc(OC)c(OC)c2)cc1OC [TERAMEPROCOL] | 4.35
13 | CCCC(=O)Oc1ccc(C[C@@H](C)[C@@H](C)Cc2ccc(OC(=O)CCC)c(OC)c2)cc1OC | 4.04
14 | CCCCCCCCCCCCCCCCCC(=O)Oc1ccc(C[C@H](C)[C@H](C)Cc2ccc(O)c(OC)c2)cc1OC (racemic) | 3.84
15 | CCCCCCCC/C=C\CCCCCCCC(=O)Oc1ccc(C[C@H](C)[C@H](C)Cc2ccc(O)c(OC)c2)cc1OC (racemic) | 4.51

Each compound was assayed on Klebsiella pneumoniae (assay: Antibacterial activity against NDM-1 positive Klebsiella pneumoniae (14-3335) assessed as inhibition of microbial growth up to 50 ug/ml incubated for 24 hrs by microdilution assay).
Type: functional

Row | SMILES | Activity
16 | CCCCCCCC/C=C\CCCCCCCC(=O)Oc1ccc(C[C@@H](C)[C@@H](C)Cc2ccc(OC(=O)CCCCCCC/C=C\CCCCCCCC)c(OC)c2)cc1OC | inactive
17 | COc1ccc(C[C@@H](C)[C@@H](C)Cc2ccc(OC)c(OC)c2)cc1OC [TERAMEPROCOL] | inactive
18 | CCCC(=O)Oc1ccc(C[C@@H](C)[C@@H](C)Cc2ccc(OC(=O)CCC)c(OC)c2)cc1OC | inactive
19 | CCCCCCCCCCCCCCCCCC(=O)Oc1ccc(C[C@H](C)[C@H](C)Cc2ccc(O)c(OC)c2)cc1OC (racemic) | inactive
20 | CCCCCCCC/C=C\CCCCCCCC(=O)Oc1ccc(C[C@H](C)[C@H](C)Cc2ccc(O)c(OC)c2)cc1OC (racemic) | inactive

The compounds below were run on Escherichia coli (assay: Antibacterial activity against oxacillin-resistant Escherichia coli OXA-48 assessed as inhibition of microbial growth up to 50 ug/ml incubated for 24 hrs by microdilution assay).
Type: functional

Row | SMILES | Activity
21 | CCCCCCCC/C=C\CCCCCCCC(=O)Oc1ccc(C[C@@H](C)[C@@H](C)Cc2ccc(OC(=O)CCCCCCC/C=C\CCCCCCCC)c(OC)c2)cc1OC | inactive
22 | COc1ccc(C[C@@H](C)[C@@H](C)Cc2ccc(OC)c(OC)c2)cc1OC [TERAMEPROCOL] | inactive
23 | CCCC(=O)Oc1ccc(C[C@@H](C)[C@@H](C)Cc2ccc(OC(=O)CCC)c(OC)c2)cc1OC | inactive
24 | CCCCCCCCCCCCCCCCCC(=O)Oc1ccc(C[C@H](C)[C@H](C)Cc2ccc(O)c(OC)c2)cc1OC (racemic) | inactive
25 | CCCCCCCC/C=C\CCCCCCCC(=O)Oc1ccc(C[C@H](C)[C@H](C)Cc2ccc(O)c(OC)c2)cc1OC (racemic) | inactive

The compounds below were run on Stenotrophomonas maltophilia (assay: Antibacterial activity against trimethoprim-sulfamethoxazole-resistant Stenotrophomonas maltophilia assessed as inhibition of microbial growth up to 50 ug/ml incubated for 24 hrs by microdilution assay).
Type: functional

Row | SMILES | Activity
26 | CCCCCCCC/C=C\CCCCCCCC(=O)Oc1ccc(C[C@@H](C)[C@@H](C)Cc2ccc(OC(=O)CCCCCCC/C=C\CCCCCCCC)c(OC)c2)cc1OC | inactive
27 | COc1ccc(C[C@@H](C)[C@@H](C)Cc2ccc(OC)c(OC)c2)cc1OC [TERAMEPROCOL] | inactive
28 | CCCC(=O)Oc1ccc(C[C@@H](C)[C@@H](C)Cc2ccc(OC(=O)CCC)c(OC)c2)cc1OC | inactive
29 | CCCCCCCCCCCCCCCCCC(=O)Oc1ccc(C[C@H](C)[C@H](C)Cc2ccc(O)c(OC)c2)cc1OC (racemic) | inactive
30 | CCCCCCCC/C=C\CCCCCCCC(=O)Oc1ccc(C[C@H](C)[C@H](C)Cc2ccc(O)c(OC)c2)cc1OC (racemic) | inactive

The compounds below were run on Acinetobacter baumannii (assay: Antibacterial activity against carbapenem-resistant Acinetobacter baumannii (12-666) assessed as inhibition of microbial growth up to 50 ug/ml incubated for 24 hrs by microdilution assay).
Type: functional

Row | SMILES | Activity
31 | CCCCCCCC/C=C\CCCCCCCC(=O)Oc1ccc(C[C@@H](C)[C@@H](C)Cc2ccc(OC(=O)CCCCCCC/C=C\CCCCCCCC)c(OC)c2)cc1OC | inactive
32 | COc1ccc(C[C@@H](C)[C@@H](C)Cc2ccc(OC)c(OC)c2)cc1OC [TERAMEPROCOL] | inactive
33 | CCCC(=O)Oc1ccc(C[C@@H](C)[C@@H](C)Cc2ccc(OC(=O)CCC)c(OC)c2)cc1OC | inactive
34 | CCCCCCCCCCCCCCCCCC(=O)Oc1ccc(C[C@H](C)[C@H](C)Cc2ccc(O)c(OC)c2)cc1OC (racemic) | inactive
35 | CCCCCCCC/C=C\CCCCCCCC(=O)Oc1ccc(C[C@H](C)[C@H](C)Cc2ccc(O)c(OC)c2)cc1OC (racemic) | inactive

The compounds below were run on Providencia rettgeri (assay: Antibacterial activity against NDM-1 positive Providencia rettgeri assessed as inhibition of microbial growth up to 50 ug/ml incubated for 24 hrs by microdilution assay).
Type: functional

Row | SMILES | Activity
36 | CCCCCCCC/C=C\CCCCCCCC(=O)Oc1ccc(C[C@@H](C)[C@@H](C)Cc2ccc(OC(=O)CCCCCCC/C=C\CCCCCCCC)c(OC)c2)cc1OC | inactive
37 | COc1ccc(C[C@@H](C)[C@@H](C)Cc2ccc(OC)c(OC)c2)cc1OC [TERAMEPROCOL] | inactive
38 | CCCC(=O)Oc1ccc(C[C@@H](C)[C@@H](C)Cc2ccc(OC(=O)CCC)c(OC)c2)cc1OC | inactive
39 | CCCCCCCCCCCCCCCCCC(=O)Oc1ccc(C[C@H](C)[C@H](C)Cc2ccc(O)c(OC)c2)cc1OC (racemic) | inactive
40 | CCCCCCCC/C=C\CCCCCCCC(=O)Oc1ccc(C[C@H](C)[C@H](C)Cc2ccc(O)c(OC)c2)cc1OC (racemic) | inactive

These compounds were tested on Escherichia coli (assay: Antibacterial activity against extended-spectrum beta-lactamase-positive Escherichia coli (14-2081) assessed as inhibition of microbial growth up to 50 ug/ml incubated for 24 hrs by microdilution assay).
Type: functional

Row | SMILES | Activity
41 | CCCCCCCC/C=C\CCCCCCCC(=O)Oc1ccc(C[C@@H](C)[C@@H](C)Cc2ccc(OC(=O)CCCCCCC/C=C\CCCCCCCC)c(OC)c2)cc1OC | inactive
42 | COc1ccc(C[C@@H](C)[C@@H](C)Cc2ccc(OC)c(OC)c2)cc1OC [TERAMEPROCOL] | inactive
43 | CCCC(=O)Oc1ccc(C[C@@H](C)[C@@H](C)Cc2ccc(OC(=O)CCC)c(OC)c2)cc1OC | inactive
44 | CCCCCCCCCCCCCCCCCC(=O)Oc1ccc(C[C@H](C)[C@H](C)Cc2ccc(O)c(OC)c2)cc1OC (racemic) | inactive
45 | CCCCCCCC/C=C\CCCCCCCC(=O)Oc1ccc(C[C@H](C)[C@H](C)Cc2ccc(O)c(OC)c2)cc1OC (racemic) | inactive

These compounds were tested on Pseudomonas aeruginosa (assay: Antibacterial activity against carbapenem-resistant Pseudomonas aeruginosa (13-1391) assessed as inhibition of microbial growth up to 50 ug/ml incubated for 48 hrs by microdilution assay).
Type: functional

Row | SMILES | Activity
46 | CCCCCCCC/C=C\CCCCCCCC(=O)Oc1ccc(C[C@@H](C)[C@@H](C)Cc2ccc(OC(=O)CCCCCCC/C=C\CCCCCCCC)c(OC)c2)cc1OC | inactive
47 | COc1ccc(C[C@@H](C)[C@@H](C)Cc2ccc(OC)c(OC)c2)cc1OC [TERAMEPROCOL] | inactive
48 | CCCC(=O)Oc1ccc(C[C@@H](C)[C@@H](C)Cc2ccc(OC(=O)CCC)c(OC)c2)cc1OC | inactive
49 | CCCCCCCCCCCCCCCCCC(=O)Oc1ccc(C[C@H](C)[C@H](C)Cc2ccc(O)c(OC)c2)cc1OC (racemic) | inactive
50 | CCCCCCCC/C=C\CCCCCCCC(=O)Oc1ccc(C[C@H](C)[C@H](C)Cc2ccc(O)c(OC)c2)cc1OC (racemic) | inactive
